# In PMC6767236, “Selective Cannabinoid 2 Receptor Agonists as Potential Therapeutic Drugs for the Treatment of Endotoxin-Induced Uveitis” (Molecules, 2019):
# Like-named read-outs stand apart in the source and are kept apart here.
# Columns and labels:
# human CB2R = molecular target: T1, human CB2R (Homo sapiens, UniProt P34972); experiment: PathHunter β-arrestin recruitment assay, hCB2R; format: cell-based
# T1 construct: bgal (beta-galactosidase fragment of the PathHunter system, named only in the cell line's name); host or cells: CHO-K1 (CHOK1hCB2_bgal)
# T1 sequence (P34972 whole entry, the tested form may be a part): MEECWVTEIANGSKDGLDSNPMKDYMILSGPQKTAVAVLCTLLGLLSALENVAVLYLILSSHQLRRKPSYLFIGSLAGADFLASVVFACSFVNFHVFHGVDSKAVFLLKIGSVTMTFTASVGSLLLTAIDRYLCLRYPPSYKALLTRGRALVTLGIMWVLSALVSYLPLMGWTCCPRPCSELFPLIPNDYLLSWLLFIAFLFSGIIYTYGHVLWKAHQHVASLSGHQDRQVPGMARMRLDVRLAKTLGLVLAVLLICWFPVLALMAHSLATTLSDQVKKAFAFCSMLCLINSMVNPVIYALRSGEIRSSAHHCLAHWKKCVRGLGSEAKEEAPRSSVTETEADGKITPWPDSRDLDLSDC
# Description: (§1) Assays were carried out using the PathHunter hCB1_bgal, hCB2_bgal, or mCB2_bgal CHOK1 β-arrestin recruitment assay kit (DiscoveRx, Fremont, CA, USA) as previously described. A total of 5000 cells per well were seeded in 384-well plates (Perkin Elmer, MA, USA) containing 20 μL cell culture medium and incubated for 16–18 h at 37 °C and 5% CO2. Cells were stimulated with 10 μM of each agonist or 11 increasing concentrations and incubated for 90 min at 37 °C and 5% CO2. […] The cells were incubated for 90 min at 37 °C and 5% CO2. Compounds in DMSO stock solutions were added using a HP D300 Digital Dispenser (Tecan, Mannedorf, Switzerland). The final concentration of organic solvent per assay point was ≤ 0.1%. The PathHunter Detection mixture was used, according to the manufacturer’s protocol, to determine the β-galactosidase enzyme activity. Detection mixture, 12 μL per well, was added and the plate was incubated for 1 h in the dark at room temperature. Chemiluminescence, indicated as relative light unit, was measured on an EnVision multilabel plate reader (Perkin Elmer, MA, USA).
# CYP3A4 = CYP3A4 (Homo sapiens, UniProt P08684); experiment: Cytochrome P450 inhibition assay, CYP3A4; format: in vitro ADME; conditions: read-out: IC50 CYP3A4
# Sequence of CYP3A4 (P08684 whole entry): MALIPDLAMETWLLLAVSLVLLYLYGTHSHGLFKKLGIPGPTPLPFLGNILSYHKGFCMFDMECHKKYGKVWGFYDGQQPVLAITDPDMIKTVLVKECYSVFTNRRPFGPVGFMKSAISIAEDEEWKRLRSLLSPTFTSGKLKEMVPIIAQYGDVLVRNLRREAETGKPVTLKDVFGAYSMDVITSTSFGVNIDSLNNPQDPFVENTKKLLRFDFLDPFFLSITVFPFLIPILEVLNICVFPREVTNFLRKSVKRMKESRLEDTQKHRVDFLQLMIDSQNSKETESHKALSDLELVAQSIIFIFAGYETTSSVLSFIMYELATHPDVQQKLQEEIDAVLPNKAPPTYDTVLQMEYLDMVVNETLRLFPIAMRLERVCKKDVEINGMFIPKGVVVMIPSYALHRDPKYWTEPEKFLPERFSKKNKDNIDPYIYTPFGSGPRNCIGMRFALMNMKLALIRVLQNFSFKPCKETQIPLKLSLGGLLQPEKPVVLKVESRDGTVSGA
# [1] = Description: The GSH adduct formation test aims for the identification of molecules which bear the risk of forming reactive metabolites that might trigger drug-induced liver injury and drug-induced hypersensitivity reactions in patients. The compounds are incubated with liver microsomes to assess reactive metabolite formation. Glutathione is added as a nucleophile to convert eventually formed reactive species into a stable conjugate that can be analyzed by mass spectrometry. Details on the assay have been reported in Brink et al. (2014). […]
# [2] = Saturation solubility in selected solvents/vehicles; format: physicochemical; conditions: for solubility: thermodynamic from solid, n = 1
# Description: Saturation Solubility (= Thermodynamic Solubility)
# Approximately 8.6 mg test compound per milliliter solvent/vehicle was stirred in HPLC vials (9 × 12 × 32 mm, Waters) at 350 rpm for 15 h. Samples of 10 µL each were taken and microscopically examined for presence of solid particles. If the active pharmacological ingredient (API) dissolved completely, more solid API was added, and stirring was continued for another 15 h. Addition of solid material was repeated up to 96 h or until residual solid particles could be detected. Samples of 0.5 mL were then transferred to Eppendorf Ultrafree filter tubes (Filter: PVDF 0.22 µm) and centrifuged at 14,500 rpm for 10 min. The filtrates were diluted in ethanol and analyzed for content by UPLC. The measurements were also conducted in 0.05 M aqueous phosphate buffer, fasted (FaSSIF), and fed (FeSSIF) simulated gastrointestinal fluid. […]
# human CB1R [3] = molecular target: T2, human CB1R (Homo sapiens, UniProt P21554); conditions: [3H]-CP55940 displacement; * previously published; read-out: hCB1R: Ki; cited from earlier work
# T2 construct: host or cells: CHO
# T2 sequence (P21554 whole entry): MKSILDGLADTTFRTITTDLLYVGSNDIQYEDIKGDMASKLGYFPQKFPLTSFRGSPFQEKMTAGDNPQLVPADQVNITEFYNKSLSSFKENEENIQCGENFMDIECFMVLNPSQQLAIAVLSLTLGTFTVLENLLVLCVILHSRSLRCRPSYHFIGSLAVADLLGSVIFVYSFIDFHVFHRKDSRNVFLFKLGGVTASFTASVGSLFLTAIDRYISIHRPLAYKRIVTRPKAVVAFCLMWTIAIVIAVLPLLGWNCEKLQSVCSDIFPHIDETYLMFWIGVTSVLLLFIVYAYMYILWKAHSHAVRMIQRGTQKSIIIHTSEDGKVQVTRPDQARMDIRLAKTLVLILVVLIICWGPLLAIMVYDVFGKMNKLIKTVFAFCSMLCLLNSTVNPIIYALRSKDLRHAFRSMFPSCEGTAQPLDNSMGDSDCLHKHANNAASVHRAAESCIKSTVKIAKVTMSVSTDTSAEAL
# human CB1R [4] = molecular target: T2, human CB1R; conditions: * previously published, cited from earlier work
# [5] = human and mouse liver microsomes; underlying data previously published; cited from earlier work
# [6] = cited from earlier work
# mouse CB2R = mouse CB2R (Mus musculus, UniProt P47936); experiment: cell-based; format: cell-based; set-up: bgal (beta-galactosidase fragment of the PathHunter system, named only in the cell line's name); host or cells: CHO-K1 (CHOK1mCB2_bgal)
# Sequence of mouse CB2R (P47936 whole entry, the tested form may be a part): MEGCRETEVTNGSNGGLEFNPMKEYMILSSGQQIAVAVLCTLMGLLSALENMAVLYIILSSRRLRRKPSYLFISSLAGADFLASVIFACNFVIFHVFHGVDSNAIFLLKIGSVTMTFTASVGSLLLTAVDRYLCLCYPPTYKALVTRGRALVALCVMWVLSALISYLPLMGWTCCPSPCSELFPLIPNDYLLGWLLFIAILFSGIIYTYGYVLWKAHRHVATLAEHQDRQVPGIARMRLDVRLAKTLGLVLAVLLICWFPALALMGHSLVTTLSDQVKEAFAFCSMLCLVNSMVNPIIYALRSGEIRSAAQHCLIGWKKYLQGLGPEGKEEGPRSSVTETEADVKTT
# Description: as §1
# [7] = solubility sample, RO6871085 as hydrochloride salt
smiles,measurement,setting,value
"Cc1nc([C@](C)(CC2CC2)NC(=O)c2cc(OCC(F)(F)F)c(C3CC3)cn2)no1 [RO6871085, 5-Cyclopropyl-N-[(2S)-1-cyclopropyl-2-(5-methyl-1,2,4-oxadiazol-3-yl)propan-2-yl]-4-(2,2,2-trifluoroethoxy)pyridine-2-carboxamide]",functional behaviour in hCB2R β-arrestin assay,human CB2R,partial agonist
same,hCB1R beta arrestin EC50/hCB2R beta arrestin EC50,human CB2R,>545
same,hCB2R: beta arrestin efficacy,human CB2R,51%
same,EC50,human CB2R; read-out: hCB2R: beta arrestin EC50,0.055 µM
same,IC50,CYP3A4,37 µM
same,GSH Adduct Formation in Human Liver Microsomes,[1],no adduct
same,solubility in Tocrisolve 100,[2],good solvent
same,solubility,"[2]; aqueous with cosolvent or surfactant or cyclodextrin, RO6871085 as hydrochloride salt, HU308 crystalline material, > = saturation not achieved, read-out: Solubility in Tocrisolve",> 30000 µg/mL
same,solubility,"[2]; oil or lipid, RO6871085 as hydrochloride salt, HU308 crystalline material, > = saturation not achieved, read-out: Solubility in MCT (Miglyol 812)",2300 µg/mL
same,solubility,"[2]; pH 6, aqueous with cosolvent or surfactant or cyclodextrin, 200 mM glycocholic acid, 200 mM lecithin in water for injection, pH 6, RO6871085 as hydrochloride salt, read-out: Solubility in Mixed Micelles",200 µg/mL
same,pH of solution in Mixed Micelles,[2]; [7],6.1
same,pH of solution in Tocrisolve,[2]; [7],1.2
same,Ki,human CB1R [3],3.38 µM
same,EC50,human CB1R [4]; read-out: hCB1R: cAMP EC50,1.45 µM
same,hCB1R: cAMP efficacy,"human CB1R [4]; second number of the cell, relative to 1 µM CP55940",38%
same,clearance in human as well as mouse microsomes (class in words),[5],low to medium clearances
same,PAMPA Peff,[6]; * at end of cell: previously published,2.44 10*-6 cm/s
same,PAMPA %Acceptor,[6]; * previously published,2%
same,PAMPA %Donor,[6]; * previously published,20%
same,PAMPA %Membrane,[6]; * previously published,78%
same,activity in mouse CB2R β-arrestin assay,mouse CB2R,not active
same,EC50,mouse CB2R; read-out: mouse CB2R: beta arrestin EC50,> 30 µM
